Experimental data reported in patent publication US8143246B2, “1-(4-(pyridin-2-yl)benzyl)imidazolidine-2,4-dione derivatives” (MSD OSS B.V., priority 2008, dated 2012).

Assays:
[1] = system: mechanical hyperalgesia induced by complete Freund's adjuvant in rats; test: Mechanical hyperalgesia in the rat (CFA inflammatory pain); type: in vivo; settings: for % Attenuation of hyperalgesia (peak effect): p.o., male Wistar rats, Randall-Sellito, 24 h after CFA, mean ± s.e.m.
Method: Mechanical Hyperalgesia in the Rat
In this rat model of inflammatory pain, inflammation is induced by subcutaneous injection of complete Freund's adjuvant (CFA) into the hind paw. The associated mechanical hyperalgesia is quantified by measuring the reduction in paw withdrawal threshold (PWT) to mechanical compression the paw.
Experiments were conducted using male Wistar rats weighing (141-175 g). In brief, the rats' paw withdrawal threshold (PWT) to a mechanical compression of the hind paw was measured (baseline reading) using a Randall-Sellito apparatus (Ugo Basile). A cut-off of 20 g was employed to minimise tissue damage to the paw. The animals were then lightly anaesthetised with isoflurane (1-3%) and complete Freund's adjuvant (0.1 ml per paw) was injected subcutaneously (s.c.) into the plantar surface of the left hind paw. The animals were then returned to their home cage and left for the inflammation to develop. Twenty four hours after CFA injection, PWT's were re-measured (0 min) and immediately after this reading, rats were dosed orally with either vehicle or test compound (4.4-43.8 μmol/kg p.o. of compound 12). Readings were then made at 3 h post administration. Data were plotted as mean±s.e.m. and compared between groups using the Kruskal-Wallis one-way analysis of variance, a non-parametric statistical test. […] The percent attenuation of mechanical hyperalgesia is calculated as follows: […]

[2] = system: mechanical allodynia induced by spinal nerve ligation in rats; test: Rat (Chung) model of neuropathic pain; type: in vivo; settings: for Withdrawal threshold (g) at peak effect: p.o., male Wistar rats, von Frey, mean ± s.e.m.
Method: The Rat (Chung) Model of Neuropathic Pain
In this model, mechanical allodynia is induced by tight ligation of the left L5 spinal nerve.
Male Wistar rats (228-301 g body weight at time of surgery) were employed in the study. Rats were placed on an elevated (˜40 cm) mesh floor in perspex boxes and the rats' withdrawal threshold to a mechanical stimulus (calibrated von Frey filaments) was measured using filaments of increasing force (2.6-167 mN) as described above. The von Frey filaments were applied to the plantar surface of the paw and threshold response determined using the up and down method. A positive response was noted if the paw was sharply withdrawn. A cut-off of 15 g was selected as the upper limit for testing. Following baseline measurements each animal was anaesthetised and the L5 spinal nerve tightly ligated. The animals were allowed to recover from the surgery for a period of at least three days. On the day of drug administration the paw withdrawal thresholds were re-measured (0 min). Immediately after this reading, the rats were dosed orally with vehicle or test compound and readings measured at various time points after compound administration.
Data were expressed as mean±s.e.m. Statistical analysis was performed using the Kruskal-Wallis one-way analysis of variance, a non-parametric statistical test. Each of the treatment groups were then compared against the vehicle group, using the non-parametric Dunn's test.

## CC(C)CN1C(=O)CN(Cc2ccc(-c3cccc(CN4CCCCC4)n3)cc2)C1=O [Example 12, 3-Isobutyl-1-(4-(6-(piperidin-1-ylmethyl)pyridin-2-yl)benzyl)imidazolidine-2,4-dione]
[1]; oral, 4.4-43.8 μmol/kg
  Effect on mechanical hyperalgesia induced by CFA: reversed mechanical hyperalgesia induced by CFA in a dose-dependent fashion
[1]; oral, CFA-induced mechanical hyperalgesia
  MED: 13.2 µmol/kg
[1]; 4.4 μmol/kg
  % Attenuation of hyperalgesia (peak effect): 58.64 ± 27.32%
[1]; 13.2 μmol/kg, p ≦ 0.01 vs vehicle
  % Attenuation of hyperalgesia (peak effect): 69.70 ± 12.88 %
[1]; 43.8 μmol/kg, p ≦ 0.001 vs vehicle
  % Attenuation of hyperalgesia (peak effect): 116.74 ± 23.78 %
[2]; oral, 120 and 180 min post drug administration
  Effect on mechanical allodynia: attenuated mechanical allodynia in a dose-dependent fashion
[2]; oral, mechanical allodynia
  Minimum effective dose (MED): 43.8 µmol/kg
[2]; 4.4 μmol/kg
  Withdrawal threshold (g) at peak effect: 2.40 ± 0.64 g
[2]; 13.2 μmol/kg
  Withdrawal threshold (g) at peak effect: 4.32 ± 1.63 g
[2]; 43.8 μmol/kg, p ≦ 0.01 vs vehicle
  Withdrawal threshold (g) at peak effect: 8.97 ± 2.21 g
